These results are taken from US20250295629A1, “COMPOSITIONS AND METHODS FOR TREATING CANCERS OF THE CENTRAL NERVOUS SYSTEM (CNS), INCLUDING GLIOBLASTOMA AND CHEMORESISTANT CNS TUMORS, AND RELATED COMPOSITIONS AND METHODS FOR INHIBITING AND ELIMINATING CNS CANCER STEM CELLS” (priority 2022, published 2025).

Series [1] deals with GLUC2 cells selected for resistance to 500 uM temozolomide. Description: Murine glioma model with cells selected for temozolomide resistance. It counts as in vivo, mouse. The settings on record: approximately 3 weeks of lucanthone treatment. Here is the method: Currently, there exist no therapies to extend patient survival after glioma recurrence. To that end, GLUC2 cells were treated with escalating doses of temozolomide for several months until cells rebounded from multiple doses of 500 uM temozolomide, a dose far exceeding what is clinically achievable (FIG. 24A). Cells were then implanted into the striatum of mice. After 7 days, mice with similar disease burden were stratified into control or lucanthone treatment groups (FIG. 24B). After approximately 3 weeks of lucanthone treatment, relative luminescent increases (correlative of disease burden) decreased by about 50% in the lucanthone treatment group (FIG. 24C). Representative images are shown before animal sacrifice (FIG. 24D). Tumor volume was also found to be reduced by 50% as a result of lucanthone treatment (FIG. 24E, FIG. 24F).

Series [2] deals with GLUC2 GSC intracranial gliomas. Description: Murine glioma model, luciferase imaging and tumor volume. It counts as in vivo, mouse. Here is the method:
Gliomas were established in 3-4 month old male and female mice as described previously (3, 4, 33). GLUC2 GSC were dissociated with accutase and counted. Mice were anesthetized with 20 mg/kg avertin, a midline incision was made in the scalp, the skin retracted and a small burr hole was drilled in the skull at the following stereotactic coordinates from bregma: −lmm anteroposterior and +2 mediolateral. l×10^5 GLUC2 GSC resuspended in PBS were injected over a period of 2 minutes at a depth of 3 mm. At the end of the injection, the needle was kept in the injection site for a further 3 minutes. After needle removal, the incision was sutured and mice were placed on a heating pad until they fully recovered from anesthesia. […] All animal procedures were approved by the Stony Brook University Institutional Animal Care and Use Committee.
GSC engraftment was visualized using the IVIS spectrum in vivo imaging system 7 days after inoculation and again on days 14 and 21. Briefly, mice were anesthetized using continuous isofluorane exposure. Their scalps were shaved. Mice were injected i.p. with 150 mg/kg D-Luciferin, carefully placed in the IVIS spectrum machine and imaged every 3-4 minutes for 40 minutes. Relative signal was quantified by technician blinded to experiment, and luminescence ratios of day 21 to day 7 were calculated to approximate disease progression throughout the course of treatment.
Lucanthone was solubilized in 10% DMSO, 40% HPCD in PBS. After confirming the presence of gliomas on day 7, mice were randomly divided to control and treatment groups, and treated with either saline or 50 mg/kg lucanthone i.p. every day from day 7 to day 20. On day 21, tumors were visualized by bioluminescent imaging, as above.
Mice were anesthetized with 20 mg/kg avertin and transcardially perfused with 30 ml PBS followed by 30 ml 4% PFA in PBS. Brains were removed and post-fixed in 4% PFA in PBS overnight. They were dehydrated for 48 hours in 30% w/v sucrose in PBS. Brains were then embedded in optimal cutting temperature compound (OCT, Tissue-Tek) and 20 μm coronal sections throughout the entire tumor were taken on a Leica cryostat (Nusslock, Germany) and collected on Superfrost plus microscope slides. To determine tumor volume, serial sections were taken from each animal and subjected to hematoxylin and eosin stain. Tumor volume was calculated as tumor area×20 μm thickness, x number of slides (34).

Series [3] deals with LC3-II and p62 in GBM9 and GBM43 stem-like cells. The series can be described thus: Western blot of autophagy markers in patient-derived stem-like cells. It counts as cell-based, human. The settings on record: 3 uM, 24 hours. Here is the method: Immunoblotting was done as described previously (4). Briefly, cells were lysed in 50 mM Tris-HCl (pH 7.4) with 1% Nonidet P-40, 0.25% sodium deoxycholate, 150 mM NaCl, 1% SDS and 1 mM sodium orthovanadate. Proteins were denatured by boiling with treatment with BME. Proteins were run on SDS-page gels, transferred to PVDF membranes (Immobilon; Millipore). Membranes were washed with Tris-buffered saline with 0.1% Tween 20 and blocked in a 5% non-fat dry milk powder for 1 hour. Membranes were then probed for LC3 (1:1000), p62 (1:1000), Olig2 (1:1000), SOX2 (1:1000) CD44 (1:200), TMEMl 19 (1:1000) and B-Actin (1:2000; sigma Aldrich). Membranes were rinsed in TBS-T, probed with associated HRP-conjugated secondary antibodies and exposed to Pierce ECL substrate for 1 minute (Thermo Fisher Scientific) after which x-ray films were developed from membranes.

In series [4] the test system is LC3, P62 and Cathepsin D in GLUC2 and KR158 cells. The series can be described thus: Immunocytochemistry of autophagy markers. It counts as cell-based, mouse. The settings on record: 48 hours. Here is the method: For immunocytochemical analysis, GLUC2, KRl 58 and GBM43 cells were plated on glass coverslips overnight. Cells were treated with medium or lucanthone for 48 hours. The medium was aspirated and cells were fixed with 4% PFA for 10 minutes. Plates were then washed 3× with 0.3% TX-100 in PBS and wells were blocked with 3% normal goat serum/0.3% TX-100 in PBS for 1 hour. Cells were stained with primary antibodies overnight (LC3, Ki67, Nestin, Olig2, SOX2, CD133, p62, Cathepsin D, yH2AX). The primary antibody was removed, and cells were again washed 3× with 0.3% TX-100 in PBS after which time cells were incubated with fluorescent secondary antibodies for an hour at room temperature. Cells were then washed 3× with PBS, counterstained with DAPI and imaged under confocal microscopy. GSC were induced to adhere to glass slides by precoating glass slides with Geltrex for an hour.

The next series deals with GBM9 CSC. Description: Combination with radiation or temozolomide, MTT assay. It counts as cell-based, human. Here is the method: (§1) To examine the interaction between lucanthone and ionizing radiation, 3000 GBM9 or GBM43 CSC were plated in a 96-well plate and allowed to adhere overnight. 1 hour prior to radiation, cells were treated with 1 or 3 uM lucanthone. Radiation was accomplished using a 100 kVp animal irradiator (Phillips RT-100) which irradiates at 0.75 gy per minute. After radiation, cells were incubated for 5 days, after which an MTT assay was performed.

The test system of another series is GBM43 CSC. The description is as above. Conditions: 5 days. It counts as cell-based, human. Here is the method: as §1
For series [5] the following is noted: reference 26; cited from earlier work.
Where [6] appears, read: higher relative increase in KR158 cells.

For `CCN(CC)CCNc1ccc(C)c2sc3ccccc3c(=O)c12` [lucanthone], in series [1], the “decrease of relative luminescent increases” value is reported as “about 50%” and the “reduction of tumor volume” value is listed as 50%. In addition, the systemic toxicity entry in series [2] (50 mg/kg) is “lack of apparent systemic toxicity”. Also, the “weight loss throughout the course of treatment” value in series [2] (50 mg/kg i.p. every day) is listed as “did not experience significant weight loss”. Moreover, the “mice with a two-fold increase in luminescence” value in series [2] (day 14, 50 mg/kg i.p. every day from day 7) is listed as 1 of 8. The “increase in tumor luminescence compared to day 7” value in series [2] (day 21, 50 mg/kg i.p. every day) came out at 10 fold. Besides, in series [2] (histological analysis, 50 mg/kg i.p. every day), the “tumors smaller than those of saline-treated animals” value is on record as “approximately 60%”. Moreover, in series [3], the LC3-II level result is recorded as “increase” and the p62 level entry was “increase”. Also, in series [4], the LC3 punctae entry is reported as “increase”. Besides, in series [4] (setting [6]), the “Cathepsin D level” value is on record as “increase” and the P62 level entry is “increase”. Besides, the effect on viability result with GBM9 CSC (lucanthone alone) is “minimal effects”. Also, the reduction of viability in the series on GBM9 CSC (lucanthone together with radiation, 5 days) is reported as −45%. Besides, in the series with GBM43 CSC (lucanthone alone), the reduction of viability is on record as 15%. Besides, in the series with GBM43 CSC (lucanthone combined with radiation), the reduction of viability result was “about 30%”. The “concentrations observed in the serum of patients” value in series [5] was about 10 µM.
